Measurements published in US11957737B2, “Methods of treating microbial infection and inflammation” (Colorado Seminary, Owner and Operator of University of …, priority 2017, dated 2024).

Key:
E. coli (ATCC 25922) = assay: standard broth dilutions susceptibility test, read at 600 nm; assay type: cell-based
Protocol: The following methods were used to conduct the experiments described in Examples 1-3, below: The experiments were conducted using the standard broth dilutions susceptibility test (Jorgensen, J. H.; Turnidge, J. D., Susceptibility test methods: dilution and disk diffusion methods. In Manual of Clinical Microbiology, Eleventh Edition, American Society of Microbiology: 2015; pp 1253-73). Briefly, 1 μl of glycerol stock aliquot of E. coli (ATCC 25922) was inculcated into Tryptic Soya agar (TSA) (Sigma Aldrich 22091) plates and incubated at 37° C. for 24 hrs. Subsequently, 3-5 separate colonies were selected and transferred into 4 ml Tryptic Soya broth (TSB) (Sigma Aldrich 22092) and incubated at 37° C. for 24 hrs. After incubation, samples were diluted 4 ml into 50 ml TSB to make E. coli stock. 200 μl samples were then placed into wells of a 96-microwell plate. All samples were prepared in TSB, (Blank) using TSB, ERGO (OXIS International), LF (Sigma Aldrich) and NLF were diluted to 1 mg/ml. The nitration reaction was prepared following the method reported by Selzle et al (Determination of nitration degrees for the birch pollen allergen Bet v 1. Analytical and Bioanalytical Chemistry 2013, 405(27):8945-49). According to this procedure, 400 μl aliquots of 5.0 mg/ml (±5%) LF in aqueous solution were pipetted into glass vials. […] Using the plate reader (Tecan Infinite, M1000 PRO). […]

[1] = ferrous iron (Fe++) binding capacity of LF; conditions: FIG. 3
Description: As noted above, LF binds ferrous iron (Fe++) and controls iron distribution throughout the body and its ability to bind to inflammatory and other cell membranes and impact the activities of these cells through its iron binding activities and other mechanisms. The inventors hypothesized that the antibacterial effect may be linked to the iron binding activity of LF and that this antibacterial effect may be disrupted by nitration.
However, sodium peroxinitrite caused changes that went far beyond the mere nitration of a few tyrosine residues to include destruction of tyrosine and tryptophan which at least in part were converted to unidentified reaction products. Nitration can occur as a consequence of the formation of reactive nitrogen species in the body and as a result of drug or chemical reactions, and/or environmental toxins in polluted air, water, or other routes of intake.

## C[N+](C)(C)[C@@H](Cc1c[nH]c(=S)[nH]1)C(=O)[O-] [ERGO, 3-(2-Sulfanylidene-1,3-dihydroimidazol-4-yl)-2-(trimethylazaniumyl)propanoate]
E. coli (ATCC 25922); LF 1 mg/ml or 2 mg/ml, ERGO 5 mM or 50 mM, compared to growth of E. coli without additions, FIGS. 1A and 1B
  growth of E. coli: reduced the growth of E. coli
E. coli (ATCC 25922); LF exposed to nitrating agents, various concentrations of ERGO, FIG. 2
  dependence of retained anti-bacterial activity on ERGO concentration: related to the concentration of ERGO added
[1]
  effect of ERGO on the ferrous iron (Fe++) binding capacity of LF: does not appear that the ability of ERGO to increase the anti-bacterial activity of LF results from binding of Fe++ on LF
